Measured values: patent US6613351B1, “Compound capable of introducing at least one molecule into a cell” (Biotech Tools S.A., priority 1993, dated 2003)

Columns and labels:
CHO cells = experiment: Transfection of adherent CHO cells with CAT plasmid, CAT assay; format: cell-based, Chinese Hamster; details: for transfection efficiency of the CAT gene, percentage of acetylated chloramphenicol in the cellular extract: adherent cells (CHO), 3 h incubation, medium with serum
Experimental: (§1) 5 μg of plasmid DNA and 11 μg (11 μl) of pure diC14-amidine suspension (for 25 μg (25 μl) of diC14-amidine/PE suspension (see example 2)) are separately diluted in a final volume of 50 μl with distilled water and sterilized. Both solutions are then mixed and incubated for 15 min at room temperature.
The cells are cultured in 6-well culture dishes until they are 80-90% confluent.
The suspension containing the complex (diC14-amidine-DNA or diC14-amidine/PE-DNA) is gently mixed with 2 ml of culture medium. The culture medium used for the transfection operation is identical to the usual culture medium for the cells to be transformed. The medium is prepared with 2.5% or without serum.
The mixture thus formed constitutes the “transfection medium”. The cells (about 10^6) are washed with the culture medium and the transfection medium is added. The medium is incubated for the desired period. This period may depend on the cell line to be transfected but an incubation time of 2-3 h is generally used. After incubation, the transfection medium is replaced with fresh medium; 6 hours later, the cells can be […] into 100 mm culture dishes.
(§2) CHO (Chinese Hamster Ovary) cells are cultured in F12 medium supplemented with 1% glutamine and 1% penicillin/streptomycin and containing 10% FCS (Fetal Calf Serum, K562 (human myeloid) cells are cultured in RFMI medium supplemented with antibiotics and non-essential amino acids and containing 10% FCS (0.5-1×10^6 cells/ml). Both cell lines are cultured under a CO2 atmosphere (37° C., 5% CO2).
(§3) The plasmid used is derived from the commercial plasmid pCMV5 into which the bacterial replication origin S1, the ampicillin resistance gene and the CAT gene of bacterial origin have been inserted. It is approximately 5000 base pairs in size and is stored at a concentration of 1 mg/ml.
The general procedure described above was followed; 5 μg (5 μl) of plasmid DNA and 11 μg (11 μl) of pure diC14-amidine suspension (or 25 μg (25 μl) of diC14-amidine/PE suspension) prepared as described above are used. The CHO cells (adherent) are plated in the 6-well culture dishes the day before the experiment in an amount of 10^6 cells/well; while the K562 cells (in suspension) are used in an amount of 10^6 cells per experiment.
(§4) The incubation was carried out for 3 h for the two cell lines. The transfection medium is the normal culture medium (with serum) with which vesicle vector (pure diC14-amidine or diC14-amidine/PE/DNA) has been mixed under the conditions described in the general procedure.
After incubation, the cells are treated as described above; the CHO cells are transferred after 6 h into 100 mm culture dishes. The two cell lines continue to grow for 36 h before the CAT assay performed as described by Gorman et al., B.H. (1982), Mol. Cell. Biol. 2, 1044-1051; in brief, the cell lysates are incubated at 37° C. with [^14C]chloramphenicol and acetyl CoA for 2 h and extracted with ethyl acetate. The organic phase is eluted by TLC (thin-layer chromatography) with chloroform/methanol 95:5. The acetylation of chloramphenicol is determined by autoradiography on the chromatograms and counting of the spots on the plate.
(§5) Table 5 below gives the comparison of the transfection efficiency of the CAT gene for diC14 and the product DOTAP® marketed by Boehringer Mannheim, expressed as percentage of acetylated chloramphenicol in the cellular extract, under identical experimental conditions.

K562 cells = experiment: Transfection of K562 suspension cells with CAT plasmid, CAT assay; format: cell-based, human; details: 3 h incubation, medium with serum
Experimental: as §1
The suspension containing the complex (diC14-amidine-DNA or diC14-amidine/PE-DNA) is gently mixed with 10 ml of medium. The mixture thus formed constitutes the “transfection medium”. Aliquots of 10^6 cells are centrifuged and the pellets are resuspended in the transfection medium. The cell suspensions are distributed into 100 mm culture dishes. The suspensions are incubated for the desired period; after incubation, the cells are centrifuged and resuspended in 10 ml of fresh medium and then cultured normally.
as §2, §3
[…] The CHO cells (adherent) are plated in the 6-well culture dishes the day before the experiment in an amount of 10^6 cells/well; while the K562 cells (in suspension) are used in an amount of 10^6 cells per experiment.
as §4
After incubation, the cells are treated as described above; the CHO cells are transferred after 6 h into 100 mm culture dishes. The two cell lines continue to grow for 36 h before the CAT assay performed as described by Gorman et al., B.H. (1982), Mol. Cell. Biol. 2, 1044-1051; in brief, the cell lysates are incubated at 37° C. with [^14C]chloramphenicol and acetyl CoA for 2 h and extracted with ethyl acetate. […] The acetylation of chloramphenicol is determined by autoradiography on the chromatograms and counting of the spots on the plate.
as §5

[1] = vector composition 2 + 5 (μg) plasmid DNA + cationic vesicles
[2] = vector composition 5 + 10 (μg) plasmid DNA + cationic vesicles

Structure (SMILES) | transfection efficiency of the CAT gene, percentage of acetylated chloramphenicol in the cellular extract (CHO cells; [1]) [%] | transfection efficiency of the CAT gene, percentage of acetylated chloramphenicol in the cellular extract (CHO cells; [2]) [%] | transfection efficiency of the CAT gene, percentage of acetylated chloramphenicol in the cellular extract (K562 cells; [1]) [%] | transfection efficiency of the CAT gene, percentage of acetylated chloramphenicol in the cellular extract (K562 cells; [2]) [%] | quantities needed for transfection efficiencies relative to available commercial products (CHO cells; compared with DOTAP (Boehringer Mannheim) and Lipofectin (Gibco BRL), CHO and K562 cells)
CCCCCCCC/C=C\CCCCCCCC(=O)OCC(C[N+](C)(C)C)OC(=O)CCCCCCC/C=C\CCCCCCCC.COS(=O)(=O)[O-] (stereo not drawn) [DOTAP, N-(2,3-dioleoyloxy)propyl-N,N,N-trimethylammonium methyl sulfate, reference compound] | 32 | 40 | 29 | 36 | 
CCCCCCCCCCCCCCN=C(CCNCCCCCCCCCCCCCC)NC(C)(C)C [diC14-t-but, 3-tetradecylamino-N-tert-butyl-N′-tetradecylpropionamidine] | 63 | 65 | 60 | 68 | two to three times lower
